Results published in patent publication US20020137929A1, “1 - (3-heterocyclylphenyl) isothiourea, -isourea, -guanidine and -amidine herbicidal agents” (Intellectual Property Department, BASF Aktiengesellschaft, priority 1998, published 2002).

Assays:
[1] = system: ABUTH (Velvetleaf); assay: Preemergence herbicidal evaluation; type: in vivo, Abutilon theophrasti; conditions: preemergence, rated 4-5 weeks after treatment, 0-9 scale
Summary of the method: (§1)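 Rating at 4–5 wk post-spray on a 0–9 visual scale vs control. Application: aqueous acetone, ~0.0156–0.500 kg/ha, to soil surface after seeding, preemergence.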

[2] = system: TRZAWR (Wheat, Winter, cv Riband); assay: Postemergence herbicidal evaluation; type: in vivo, Triticum aestivum; conditions: postemergence
Summary of the method: (§2)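 Two-week seedlings sprayed postemergence at 40 psi; formulation: 1:1 acetone/water, 0.5% TWEEN 20; application ≈0.0156–0.500 kg/ha. Greenhouse grow-out, then 0–9 visual scoring at 4–5 weeks.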

[3] = system: ZEAMX (Corn, Field); assay: Preemergence herbicidal evaluation; type: in vivo, Zea mays; conditions: preemergence, rated 4-5 weeks after treatment, 0-9 scale
Summary of the method: as §1

[4] = system: IPOHE (Morningglory, Ivyleaf); assay: Preemergence herbicidal evaluation; type: in vivo, Ipomoea hederacea; conditions: preemergence, rated 4-5 weeks after treatment, 0-9 scale
Summary of the method: as §1

[5] = system: CYPIR (Rice Flatsedge); assay: Preemergence weed control under flooded paddy conditions; type: in vivo, Cyperus iria; conditions: rated 3-4 weeks after treatment
Summary of the method: (§3)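 Seeds or propagules sown in silt loam kept flooded 1.5-3 cm; compounds in 50/50 acetone/water pipetted into flood water at about 0.0313 to 0.500 kg/ha. Greenhouse; visual 0-9 rating versus untreated control 3-4 weeks after treatment.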

[6] = system: GALAP (Galium); assay: Postemergence herbicidal evaluation; type: in vivo, Galium aparine; conditions: postemergence
Summary of the method: as §2

[7] = system: SETVI (Foxtail, Green); assay: Preemergence herbicidal evaluation; type: in vivo, Setaria viridis; conditions: preemergence, rated 4-5 weeks after treatment, 0-9 scale
Summary of the method: as §1

[8] = system: ECHCG (Barnyardgrass); assay: Preemergence herbicidal evaluation; type: in vivo, Echinochloa crus-galli; conditions: preemergence, rated 4-5 weeks after treatment, 0-9 scale
Summary of the method: as §1

[9] = system: MOOVA (Monochoria); assay: Preemergence weed control under flooded paddy conditions; type: in vivo, Monochoria vaginalis; conditions: rated 3-4 weeks after treatment
Summary of the method: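 Ratings on a 0-9 visual scale cover stand, vigor, malformation, size, chlorosis and overall appearance relative to a control, taken three to four weeks post-treatment. Application was into flood water over freshly sown silt loam at roughly 0.0313 to 0.500 kg/ha.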

[10] = system: SAGPY (Arrowhead (Pygmaea)); assay: Postemergence weed control under flooded paddy conditions; type: in vivo, Sagittaria pygmaea; conditions: postemergence weeds, rated 3 to 4 weeks after treatment
Summary of the method: (§4)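 With weeds 3 to 5 cm tall and rice at the 1.5 to 2.5 leaf stage, containers were flooded and water held 1.5 to 3 cm above soil. Compounds in 50/50 v/v aqueous/acetone went into the flood water at about 0.0313 to 0.500 kg/ha a.i. Effects were visually rated 0–9 against controls after three to four weeks in the greenhouse.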

[11] = system: IPOHE (Morningglory, Ivyleaf); assay: Postemergence herbicidal evaluation; type: in vivo, Ipomoea hederacea; conditions: postemergence
Summary of the method: as §2

[12] = system: SETVI (Foxtail, Green); assay: Postemergence herbicidal evaluation; type: in vivo, Setaria viridis; conditions: postemergence
Summary of the method: as §2

[13] = system: ECHORC (Watergrass (Calif.)); assay: Postemergence weed control under flooded paddy conditions; type: in vivo, Echinochloa oryzoides; conditions: postemergence weeds, rated 3 to 4 weeks after treatment
Summary of the method: as §4

[14] = system: ECHORC (Watergrass (Calif.)); assay: Preemergence weed control under flooded paddy conditions; type: in vivo, Echinochloa oryzoides; conditions: rated 3-4 weeks after treatment
Summary of the method: as §3

## C=CCN1C(=O)C(CC(N)=O)SC1=Nc1cc(-n2c(=O)cc(C(F)(F)F)n(C)c2=O)c(F)cc1Cl (centres unmarked) [Compound 99, 3-Allyl-2-{{2-chloro-5-[3,6-dihydro-3-methyl-2,6-dioxo-4-(trifluoromethyl)-1(2H)-pyrimidinyl]-4-fluorophenyl}imino}-4-oxo-5-thiazolidineacetamide]
[1]; 0.0156 kg/ha
  ABUTH rating: 9.0
[1]; 0.0313 kg/ha
  ABUTH rating: 9.0
[1]; 0.0625 kg/ha
  ABUTH rating: 9.0
[1]; 0.1250 kg/ha
  ABUTH rating: 9.0
[1]; 0.2500 kg/ha
  ABUTH rating: 9.0
[1]; 0.5000 kg/ha
  ABUTH rating: 9.0
[2]; rate 0.0156 kg/ha
  herbicidal rating TRZAWR: 4.0
[2]; rate 0.0313 kg/ha
  herbicidal rating TRZAWR: 4.5
[2]; rate 0.0625 kg/ha
  TRZAWR herbicidal rating: 5.5
[2]; rate 0.1250 kg/ha
  TRZAWR herbicidal rating: 6.5
[3]; 0.0156 kg/ha
  ZEAMX rating: 0.0
[3]; 0.0313 kg/ha
  ZEAMX rating: 0.0
[3]; 0.0625 kg/ha
  ZEAMX rating: 1.0
[3]; 0.1250 kg/ha
  ZEAMX rating: 2.0
[3]; 0.2500 kg/ha
  ZEAMX rating: 6.0
[3]; 0.5000 kg/ha
  ZEAMX rating: 7.0
[4]; 0.0156 kg/ha
  IPOHE rating: 0.0
[4]; 0.0313 kg/ha
  IPOHE rating: 0.0
[4]; 0.0625 kg/ha
  IPOHE rating: 9.0
[4]; 0.1250 kg/ha
  IPOHE rating: 9.0
[4]; 0.2500 kg/ha
  IPOHE rating: 9.0
[4]; 0.5000 kg/ha
  IPOHE rating: 9.0
[5]; 0.0313 kg/ha
  CYPIR herbicidal effect rating: 0.0
[5]; 0.0625 kg/ha
  CYPIR herbicidal effect rating: 0.0
[5]; 0.1250 kg/ha
  CYPIR herbicidal effect rating: 0.0
[5]; 0.2500 kg/ha
  CYPIR herbicidal effect rating: 0.0
[5]; 0.5000 kg/ha
  CYPIR herbicidal effect rating: 0.0
[6]; rate 0.0156 kg/ha
  herbicidal rating GALAP: 3.0
[6]; rate 0.0313 kg/ha
  herbicidal rating GALAP: 6.0
[6]; rate 0.0625 kg/ha
  GALAP herbicidal rating: 7.0
[6]; rate 0.1250 kg/ha
  GALAP herbicidal rating: 9.0
[7]; 0.0156 kg/ha
  SETVI rating: 0.0
[7]; 0.0313 kg/ha
  SETVI rating: 1.0
[7]; 0.0625 kg/ha
  SETVI rating: 1.0
[7]; 0.1250 kg/ha
  SETVI rating: 6.0
[7]; 0.2500 kg/ha
  SETVI rating: 7.0
[7]; 0.5000 kg/ha
  SETVI rating: 9.0
[8]; 0.0156 kg/ha
  ECHCG rating: 0.0
[8]; 0.0313 kg/ha
  ECHCG rating: 0.0
[8]; 0.0625 kg/ha
  ECHCG rating: 0.0
[8]; 0.1250 kg/ha
  ECHCG rating: 1.0
[8]; 0.2500 kg/ha
  ECHCG rating: 1.0
[8]; 0.5000 kg/ha
  ECHCG rating: 7.0
[9]; 0.0313 kg/ha
  MOOVA herbicidal effect rating: 9.0
[9]; 0.0625 kg/ha
  MOOVA herbicidal effect rating: 9.0
[9]; 0.1250 kg/ha
  MOOVA herbicidal effect rating: 9.0
[9]; 0.2500 kg/ha
  MOOVA herbicidal effect rating: 9.0
[9]; 0.5000 kg/ha
  MOOVA herbicidal effect rating: 9.0
[10]; Rate 0.0313 kg/ha
  Herbicidal rating SAGPY: 0.0
[10]; Rate 0.0625 kg/ha
  Herbicidal rating SAGPY: 0.0
[10]; Rate 0.1250 kg/ha
  Herbicidal rating SAGPY: 3.0
[10]; Rate 0.2500 kg/ha
  Herbicidal rating SAGPY: 4.0
[10]; Rate 0.5000 kg/ha
  Herbicidal rating SAGPY: 4.0
[11]; rate 0.0156 kg/ha
  herbicidal rating IPOHE: 9.0
[11]; rate 0.0313 kg/ha
  herbicidal rating IPOHE: 9.0
[11]; rate 0.0625 kg/ha
  IPOHE herbicidal rating: 9.0
[11]; rate 0.1250 kg/ha
  IPOHE herbicidal rating: 9.0
[12]; rate 0.0156 kg/ha
  herbicidal rating SETVI: 6.0
[12]; rate 0.0313 kg/ha
  herbicidal rating SETVI: 7.0
[12]; rate 0.0625 kg/ha
  SETVI herbicidal rating: 9.0
[12]; rate 0.1250 kg/ha
  SETVI herbicidal rating: 8.0
[13]; Rate 0.0313 kg/ha
  Herbicidal rating ECHORC: 0.0
[13]; Rate 0.0625 kg/ha
  Herbicidal rating ECHORC: 0.0
[13]; Rate 0.1250 kg/ha
  Herbicidal rating ECHORC: 0.0
[13]; Rate 0.2500 kg/ha
  Herbicidal rating ECHORC: 0.0
[13]; Rate 0.5000 kg/ha
  Herbicidal rating ECHORC: 4.0
[14]; 0.0313 kg/ha
  ECHORC herbicidal effect rating: 0.0
[14]; 0.0625 kg/ha
  ECHORC herbicidal effect rating: 0.0
[14]; 0.1250 kg/ha
  ECHORC herbicidal effect rating: 0.0
[14]; 0.2500 kg/ha
  ECHORC herbicidal effect rating: 0.0
[14]; 0.5000 kg/ha
  ECHORC herbicidal effect rating: 4.0
